The results in this text go back to publication PMC8465942, “Cyano- and Ketone-Containing Selenoesters as Multi-Target Compounds against Resistant Cancers” (Cancers, 2021).

Data set [1] addresses ABCB1 (P-glycoprotein) in Colo 320 colonic adenocarcinoma cells (Homo sapiens, UniProt P08183). Description: ABCB1 inhibition, rhodamine 123 accumulation by flow cytometry. The following applies: for FAR (fluorescence activity ratio): rhodamine 123, FAR above 2 considered effective. How it is done: The inhibition of the ABCB1 multidrug efflux pump ABCB1 by the tested compounds was evaluated using flow cytometry, measuring the retention of rhodamine 123 by ABCB1 (P-glycoprotein) in Colo 320 colonic adenocarcinoma cells. Briefly, the cell number of colonic adenocarcinoma cells were adjusted to 2 × 10^6 cells/mL, re-suspended in serum-free RPMI-1640 medium in the case of colonic adenocarcinoma cells, and distributed in 0.5 mL aliquots into Eppendorf centrifuge tubes. The tested compounds were added at different concentrations (0.2 and 2 µM; from 1 and 10 mM stock solutions, respectively), and the samples were incubated for 10 min at room temperature. Tariquidar was applied as the positive control (0.2 µM final concentration), and DMSO was used as the solvent control (at 2 v/v%). Next, 10 µL (5.2 µM final concentration) of the fluorochrome rhodamine 123 (Sigma, St. Louis, MO, USA) was added to the samples and the cells were incubated for 20 min at 37 °C. After the incubation period, the cells were washed twice and re-suspended in 0.5 mL PBS for analysis. The fluorescence of the gated cell population was measured with a Partec CyFlow® flow cytometer (Partec, Münster, Germany). The percentage of the mean fluorescence intensity was calculated for the treated MDR cells as compared with the untreated cells. The results were obtained from a representative flow cytometry experiment in which at least 20,000 individual cells of the overall population were evaluated for the rhodamine 123 retained inside the cells. The fluorescence activity ratio (FAR) was calculated based on the following equation, which relates the measured fluorescence values: FAR=Colo320treated / Colo320control/Colo205treated / Colo205control
The parameters evaluated from flow cytometry experiments were: Forward Scatter Count (FSC, provides information about cell size); Side Scatter Count (SSC, proportional to cell granularity or internal complexity); FL-1 (Mean fluorescence of the cells), and Fluorescence Activity Ratio (FAR), which was calculated by the equation given above.
On the technique in general: Flow cytometry measures light scatter and fluorescence of single cells or particles in a stream.

Data set [2] addresses T1, recombinant human P-gp membranes (Homo sapiens, UniProt P08183).
T1 construct: purchased Promega
Kind of data set: P-gp ATPase activity assay (Pgp-Glo). It is filed as biochemical. The following applies: 25 µM; relative to basal activity. On the procedure:
P-glycoprotein ATPase activity was determined using the Pgp-Glo^TM Assay System (Promega, WI, USA). The assay was performed according to the manufacturer’s instructions. […] DMSO at 2% was applied as a solvent control. […] The reaction was stopped after adding 50 µL of ATP Detection Reagent. Then, the samples and controls were incubated at room temperature for 20 min. The emitted luciferase-generated luminescent signal was measured in a CLARIOstar Plus plate reader (BMG Labtech, UK) at 580 nm. The relative ATPase activity was calculated based on the ratio between the luminescence measured of the P-gp ATPase activity of each compound and the basal P-gp ATPase activity according to the following equation: Relative ATPase activity=Lumtreated−Lumuntreated/LumNa3VO4 − Lumuntreated
The effect of the tested compounds was evaluated according to the instructions of the manufacturer (Table 2).

Data set [3] deals with MDR Colo 320 adenocarcinoma cells. Description: Apoptosis induction (Annexin V-FITC / propidium iodide). It is filed as cell-based, human. The following applies: 2 µM. How it is done: The assay was carried out using an Annexin V-FITC Apoptosis Detection Kit Cat. No. PF 032 from Calbiochem (EMD Biosciences. Inc. La Jolla. CA), according to the manufacturer's instructions. […] The cell suspension was distributed into 1 mL aliquots (1 × 10^6 cells) into a 24-well microplate and incubated overnight at 37 °C, with 5% CO2. On the following day, the medium was removed and a fresh medium was added to the cells. The cells were incubated in the presence of Se-compounds for 3 h at 37 °C. […] After a 3 h induction period, the culture medium was removed, the cells were washed with PBS, and a fresh medium was added to the cells. The 24-well plates were incubated overnight at 37 °C, with 5% CO2. After the incubation, the supernatant was collected in a microfuge tube and 200 μL of 0.25 trypsin (Trypsin-Versene) was added to the wells until the cells detached from the surfaces of the wells. The cells were centrifuged at 2000× g for 2 min at room temperature, the supernatant was removed, and the cells were re-suspended in fresh serum-free medium. After this procedure, apoptosis assay was carried out according to the rapid protocol of the kit using Annexin V-FITC and propidium iodide staining. […] The data were analysed by FlowJo^TM software (BD Biosciences, San Jose, NJ, USA).

Data set [4] deals with HepG2 (hepatocellular carcinoma). Description: Cytotoxicity on HepG2 cells. It is filed as cell-based, human. The following applies: ratio IC50 non-tumour cells / IC50 cancer cells.

Structures are written as SMILES. “Also recorded” adds a separate entry of the source.

Sequence of ABCB1 (P-glycoprotein) in Colo 320 colonic adenocarcinoma cells (P08183 whole entry): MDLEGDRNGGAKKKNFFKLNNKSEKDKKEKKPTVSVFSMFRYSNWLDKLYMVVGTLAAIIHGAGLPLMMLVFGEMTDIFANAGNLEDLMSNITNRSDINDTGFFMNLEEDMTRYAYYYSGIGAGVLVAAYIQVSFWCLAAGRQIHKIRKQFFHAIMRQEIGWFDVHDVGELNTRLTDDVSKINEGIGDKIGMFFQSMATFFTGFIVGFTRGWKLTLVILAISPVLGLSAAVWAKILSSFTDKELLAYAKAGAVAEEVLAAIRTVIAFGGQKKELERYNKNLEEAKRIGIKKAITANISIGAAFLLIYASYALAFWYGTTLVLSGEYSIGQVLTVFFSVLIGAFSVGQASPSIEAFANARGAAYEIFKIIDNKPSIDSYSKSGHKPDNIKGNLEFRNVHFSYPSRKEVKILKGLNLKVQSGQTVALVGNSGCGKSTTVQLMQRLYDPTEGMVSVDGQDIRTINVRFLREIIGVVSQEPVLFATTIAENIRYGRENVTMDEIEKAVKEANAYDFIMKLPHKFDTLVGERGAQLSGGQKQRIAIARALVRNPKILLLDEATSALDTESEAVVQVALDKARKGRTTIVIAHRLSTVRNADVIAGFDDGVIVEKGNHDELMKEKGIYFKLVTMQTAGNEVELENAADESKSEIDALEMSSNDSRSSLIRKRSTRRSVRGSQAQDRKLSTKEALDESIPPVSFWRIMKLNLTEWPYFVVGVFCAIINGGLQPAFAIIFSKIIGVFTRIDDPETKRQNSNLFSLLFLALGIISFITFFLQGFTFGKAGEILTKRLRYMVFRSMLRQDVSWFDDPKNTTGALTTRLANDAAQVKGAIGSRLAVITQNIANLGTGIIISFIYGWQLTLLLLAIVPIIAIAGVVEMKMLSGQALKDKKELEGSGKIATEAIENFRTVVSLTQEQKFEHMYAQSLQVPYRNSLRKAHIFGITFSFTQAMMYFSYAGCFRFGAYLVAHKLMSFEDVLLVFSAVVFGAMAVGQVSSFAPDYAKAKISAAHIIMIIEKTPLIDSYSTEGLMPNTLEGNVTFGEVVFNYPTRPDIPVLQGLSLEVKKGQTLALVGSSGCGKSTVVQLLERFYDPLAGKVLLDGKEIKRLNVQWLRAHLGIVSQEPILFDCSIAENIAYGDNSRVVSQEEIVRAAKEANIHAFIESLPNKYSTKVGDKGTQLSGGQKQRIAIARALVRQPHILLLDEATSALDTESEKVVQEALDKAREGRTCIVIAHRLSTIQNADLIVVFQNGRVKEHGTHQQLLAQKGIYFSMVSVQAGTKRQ
T1 sequence (P08183 whole entry): as above

Take `CC(=O)C[Se]C(=O)c1cc(F)c(F)cc1F` [K8, Se-(2-Oxopropyl) 2,4,5-Trifluorobenzoselenoate]: in data set [1] (0.2 µM), the “FSC (Forward Scatter Count)” value is 1804, the “SSC (Side Scatter Count)” value is listed as 853 and the “FAR (fluorescence activity ratio)” value turned out to be 3.38. Moreover, in data set [1] (2 µM), the “FSC (Forward Scatter Count)” value was 1990, the “SSC (Side Scatter Count)” value is recorded as 1131 and the “FAR (fluorescence activity ratio)” value was found to be 36.09. Further, in data set [2], the “Effect on P-gp ATPase activity” value was “milder inhibition of the ATPase; also recorded: inhibitors of P-gp ATPase activity”. Further, the “Total Apoptotic Events (Early + Late, %)” value in data set [3] came out at 31.6%. For the same compound, in data set [3] (3 h induction), the “Cell Death (%) Treated Sample-Untreated Sample” value was determined as 0.85%, the “Early Apoptosis (%) Treated Sample-Untreated Sample” value came out at 4.9% and the “Late Apoptosis (%) Treated Sample-Untreated Sample” value was 26.7%. Moreover, the “Apoptosis Quotient (%)” value in data set [3] (total apoptotic events relative to reference M627 (20 µM)) was determined as 64.0%. Further, the “SI MRC-5/HepG2” value in data set [4] amounted to 0.6.
